# How the values were obtained:
# [1] = In vitro metabolic stability in liver microsomes; format: in vitro ADME, rat
# CYP2D6 = CYP2D6 (Homo sapiens, UniProt P10635); assay: Inhibition of CYP enzymes activity, human liver microsomes; details: human liver microsomes 0.25 mg/mL, 10 μM, dextromethorphan substrate
# Description: (§2) Afterward, to terminate the reaction, an acetonitrile solution containing an internal standard (terfenadine) was added, centrifuged for 5 min (14,000 rpm, 4 °C), and the supernatant was injected into the LC-MS/MS system. By simultaneously analyzing metabolites, the ability of the six compounds to inhibit drug metabolism enzymes was evaluated.
# (§3) Metabolites of each CYP coenzyme indicator drug generated through the above reaction were analyzed using the Shimadzu Nexera XR system and TSQ vantage (Thermo). The HPLC column was a Kinetex C18 column (2.1 × 100 mm^2, 2.6 μm particle size; Phenomenex, Torrance, CA, USA), and the mobile phase was distilled water (A) containing 0.1% formic acid and acetonitrile (B) containing 0.1% formic acid. […] The generated metabolites were quantified using MRM (Multiple Reaction Monitoring) quantification modes, and data were analyzed using Xcalibur (version 1.6.1).
# [2] = In vitro metabolic stability in liver microsomes
# Description: Microsome incubation was measured in triplicate in a 1.5 mL Eppendorf tube with 0.1 M potassium phosphate buffer (pH 7.4). […] It has a final volume of 100 mL in the presence of an NADPH regeneration system. In the final incubation mixture, 0.5 mg/mL HLM, 0.1 M potassium phosphate buffer (pH 7.4), and NADPH regeneration system (1 mM NADPH, 10 mM MgCl2) were included. In the pre-incubation mixture, HLM was added, and the mixture was run in a shaking incubator at approximately 350 rpm and 37 °C for 5 min under a Thermomixer (Eppendorf, Hamburg, Germany). Reactions were initiated by the addition of 1 mM NADPH and then quenched by the addition of 40 μL of ice-cold acetonitrile containing 10 μM chlorpropamide (CPP) as an internal standard at 0 and 30 min. After quenching, centrifugation of the incubation mixture was performed at 15,000× g for 5 min at 4 °C. An aliquot of 2 µL of the supernatant was injected into the LC-MS/MS system. The LC-MS/MS system was Xcalibur version 1.1.1 (Thermo Fisher Scientific Inc., Waltham, MA, USA).
# CYP2C9 = CYP2C9 (Homo sapiens, UniProt P11712); assay: Inhibition of CYP enzymes activity, human liver microsomes; details: human liver microsomes 0.25 mg/mL, 10 μM, diclofenac substrate
# Sequence of CYP2C9 (P11712 whole entry): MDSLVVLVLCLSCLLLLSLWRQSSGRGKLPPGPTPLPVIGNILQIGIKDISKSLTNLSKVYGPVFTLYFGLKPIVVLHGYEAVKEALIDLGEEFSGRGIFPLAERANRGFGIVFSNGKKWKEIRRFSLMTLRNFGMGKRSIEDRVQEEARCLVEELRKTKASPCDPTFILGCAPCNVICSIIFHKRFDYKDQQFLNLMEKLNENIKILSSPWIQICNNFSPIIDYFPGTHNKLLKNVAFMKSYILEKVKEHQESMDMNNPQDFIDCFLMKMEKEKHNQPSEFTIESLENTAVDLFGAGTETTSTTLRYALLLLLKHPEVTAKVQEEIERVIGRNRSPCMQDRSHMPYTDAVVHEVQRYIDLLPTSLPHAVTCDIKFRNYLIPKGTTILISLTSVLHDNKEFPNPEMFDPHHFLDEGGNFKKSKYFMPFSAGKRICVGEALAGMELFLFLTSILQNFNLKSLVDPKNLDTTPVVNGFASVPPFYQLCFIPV
# Description: By simultaneously analyzing metabolites, the ability of the six compounds to inhibit drug metabolism enzymes was evaluated.
# as §3
# [3] = In vitro metabolic stability in liver microsomes; format: in vitro ADME, mouse
# [4] = test system: AKT and ERK phosphorylation in HCT116 cells; assay: Western blotting of pAKT and pERK; format: cell-based, human; details: HCT116, 20 µM
# Description: (§1) The cell lysate was prepared after successive treatment using mammalian protein extraction buffer (Organic buffer + 10 mM NaCl + detergent pH 7.5) mixed with 1% protease/phosphatase inhibitor cocktail; protein was quantified with BCA assay, boiled at 95 °C for 10 min by adding sample loading buffer, separated using SDS-PAGE, and transferred into methanol-activated PVDF membrane. Primary antibodies were probed overnight in PVDF membrane at 4 °C and […] with subsequent HRP anti-mouse and anti-rabbit secondary antibodies at room temperature. Then, membranes were washed with TBST buffer, and images were detected by Amersham Imager 680 (GE Healthcare; Leiden, WZ, The Netherlands) using ECL solution. Band intensities were analyzed and quantified using Image J software (version 1.53i).
# [5] = test system: PARP, caspase-3, Bcl-2, BAX in HCT116 cells; assay: Western blotting of apoptotic pathway-related proteins; format: cell-based, human
# Description: as §1
# PP2A in HCT116 cells = target: T1, PP2A in HCT116 cells (Homo sapiens, UniProt P67775); assay: PP2A activity assay (immunoprecipitation kit); format: cell-based; details: HCT116, 24 h, 20 µM of compounds 10, 11 and 13; vs nontreated control cells
# T1 construct: endogenous in cells; host or cells: HCT116
# T1 sequence (P67775 whole entry): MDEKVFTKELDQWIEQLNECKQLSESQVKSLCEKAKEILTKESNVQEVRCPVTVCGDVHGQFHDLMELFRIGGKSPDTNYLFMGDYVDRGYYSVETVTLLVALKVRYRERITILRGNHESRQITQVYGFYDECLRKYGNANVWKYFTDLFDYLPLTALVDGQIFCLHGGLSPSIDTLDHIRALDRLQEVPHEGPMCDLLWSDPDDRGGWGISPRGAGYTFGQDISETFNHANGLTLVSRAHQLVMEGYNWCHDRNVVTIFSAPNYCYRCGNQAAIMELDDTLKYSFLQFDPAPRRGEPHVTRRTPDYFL
# Description: The activity of PP2A was measured by using the PP2A kit according to the manufacturer’s instruction. The cell lysate was incubated with anti PP2A, C subunit antibody, and protein A agarose slurry for 2 h at 4 °C. The phosphopeptide solution (60 µL) was mixed and incubated at 30 °C for 10 min in a shaker. After a brief centrifuge, a 25 µL sample was liquated in ½ volume microplate and 100 µL malachite green phosphate detection working solution was added. After color development, absorbance was taken at 650 nm in a Multiskan GO microplate reader. A phosphate standard curve was constructed using phosphate standard, and results were calculated using this standard curve. This experiment was repeated three times (n = 6).
# CYP1A2 = target: T2, CYP1A2 (Homo sapiens, UniProt P05177); assay: Inhibition of CYP enzymes activity, human liver microsomes; details: human liver microsomes 0.25 mg/mL, 10 μM, phenacetin substrate
# T2 sequence (P05177 1-516): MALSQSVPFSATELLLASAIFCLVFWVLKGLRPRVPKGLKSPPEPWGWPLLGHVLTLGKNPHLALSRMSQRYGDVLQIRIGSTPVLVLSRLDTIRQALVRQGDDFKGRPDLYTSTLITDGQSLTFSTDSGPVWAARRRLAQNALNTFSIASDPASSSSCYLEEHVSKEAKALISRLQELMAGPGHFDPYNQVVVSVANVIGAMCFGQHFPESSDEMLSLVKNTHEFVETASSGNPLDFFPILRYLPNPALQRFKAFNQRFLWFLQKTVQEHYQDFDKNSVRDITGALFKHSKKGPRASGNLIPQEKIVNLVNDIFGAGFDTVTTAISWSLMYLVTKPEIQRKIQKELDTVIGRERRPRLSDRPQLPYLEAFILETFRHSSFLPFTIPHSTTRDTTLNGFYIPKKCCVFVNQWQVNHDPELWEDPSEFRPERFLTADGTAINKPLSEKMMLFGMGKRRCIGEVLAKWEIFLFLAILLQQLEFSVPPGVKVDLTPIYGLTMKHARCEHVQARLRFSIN
# Description: as §2, §3
# ceramide in HCT116 cells = assay: Ceramide ELISA of cell lysate; format: cell-based, human; details: HCT116, 20 µM, 24 h
# Description: The cellular levels of S1P, sphingosine, and ceramide were detected using an ELISA assay kit (MyBioSource, Inc., San Diego, CA, USA) according to the manufacturer’s instruction. For S1P ELISA, 100 µL cell lysates or standards were added in pre-coated ELISA wells, incubated for 90 min at 37 °C, and treated with 1x biotinylated anti S1P antibody for 1 h. Following treatment of HRP conjugated secondary antibody, the substrate was added and allowed to change the color for 15 min; then, the stop solution was added and absorbance was measured at 450 nm using a Multiskan GO (Thermo Scientific, Waltham, MA, USA) microplate spectrophotometer. […] A stop solution (50 µL) was added to each well, and optical density was measured at 450 nm using a microplate reader. […] After incubation, 50 µL substrate A and B was added to the plate and incubated at 37 °C for 20 min; a stop solution (50 µL) was added to each well and optical density was determined at 450 nm using a microplate reader. The concentration of S1P, sphingosine, and ceramide were calculated as ng/mL using respective standard curves constructed by Skanlt microplate reader software 5.0 (Thermo Scientific, Waltham, MA, USA).
# SK1 enzyme = target: T3, SK1 enzyme (Homo sapiens, UniProt Q9NYA1); assay: SK activity assay (Adapta screening system); format: biochemical; details: final concentration of 20 μM
# T3 construct: purchased Thermo Fisher Scientific
# T3 sequence (Q9NYA1 whole entry): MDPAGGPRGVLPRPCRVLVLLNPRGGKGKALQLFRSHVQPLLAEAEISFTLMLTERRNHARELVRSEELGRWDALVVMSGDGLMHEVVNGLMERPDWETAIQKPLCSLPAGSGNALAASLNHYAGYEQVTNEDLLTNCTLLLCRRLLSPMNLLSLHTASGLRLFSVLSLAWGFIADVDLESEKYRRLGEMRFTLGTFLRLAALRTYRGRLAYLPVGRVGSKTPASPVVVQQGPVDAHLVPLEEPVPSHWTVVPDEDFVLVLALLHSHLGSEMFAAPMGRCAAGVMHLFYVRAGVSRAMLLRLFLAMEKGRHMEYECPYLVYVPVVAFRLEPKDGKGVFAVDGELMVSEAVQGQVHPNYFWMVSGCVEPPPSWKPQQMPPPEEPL
# Description: The effect of compounds in sphingosine kinase activity was examined using the […] screening system (Thermo Fisher Scientific System, Waltham, MA, USA). The kinase inhibition ability of compounds 1-11 along with RB005 was measured with final concentration of 20 μM. […] The data were presented as percentage inhibition of SK enzyme by individual compounds.
# [6] = % remaining after 30 min, NADPH
# Sequence of CYP2D6 (P10635 whole entry): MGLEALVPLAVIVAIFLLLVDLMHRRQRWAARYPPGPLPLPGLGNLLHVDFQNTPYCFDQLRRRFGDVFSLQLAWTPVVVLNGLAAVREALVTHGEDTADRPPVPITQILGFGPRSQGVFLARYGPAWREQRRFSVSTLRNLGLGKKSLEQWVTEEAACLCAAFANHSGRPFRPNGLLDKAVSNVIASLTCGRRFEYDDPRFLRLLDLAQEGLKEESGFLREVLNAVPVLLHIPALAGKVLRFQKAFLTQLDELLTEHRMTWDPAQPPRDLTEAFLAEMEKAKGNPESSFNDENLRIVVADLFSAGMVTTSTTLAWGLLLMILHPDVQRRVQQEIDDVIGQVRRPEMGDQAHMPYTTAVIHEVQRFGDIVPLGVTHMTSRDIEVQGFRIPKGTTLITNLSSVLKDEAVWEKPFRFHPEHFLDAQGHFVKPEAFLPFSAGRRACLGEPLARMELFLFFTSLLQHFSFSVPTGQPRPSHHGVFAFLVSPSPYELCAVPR
compound,measurement,setting,value
"CCCCCCCOc1ccc(CCN2CCN(CCO)CC2)cc1 [Compound 10, 2-(4-(4-(Heptyloxy)phenethyl)piperazin-1-yl)ethanol]","liver microsomal stability, Rat (%)",[1]; [6],10.2%
same,liver microsomal stability (in words),[1]; rat,unstable
same,CYP2D6 activity (% of control activity),CYP2D6,87.4%
same,"liver microsomal stability, Human (%)","[2]; % remaining after 30 min, 0.5 mg/mL microsomes, NADPH",70.3%
same,liver microsomal stability (in words),[2]; human,stable
same,CYP2C9 activity (% of control activity),CYP2C9,>100%
same,"liver microsomal stability, Mouse (%)",[3]; [6],44.7%
same,liver microsomal stability (in words),[3]; mouse,unstable
same,phosphorylation of AKT and ERK,[4],significantly reduced phosphorylation of AKT and ERK
same,expression of antiapoptotic Bcl-2 protein,"[5]; HCT116, 10 and 20 µM",decreased the expression of antiapoptotic Bcl-2 protein
same,expression of proapoptotic protein BAX,"[5]; HCT116, 10 and 20 µM",increased the expression of proapoptotic protein BAX
same,cleavage of caspase-3,"[5]; HCT116, 10 and 20 µM, vs nontreated control",effectively increased the cleavage
same,cleaved PARP level,"[5]; HCT116, vs nontreated groups",increased cleaved PARP level
same,PP2A activity increase,PP2A in HCT116 cells,1.73 fold
same,CYP1A2 activity (% of control activity),CYP1A2,>100%
same,ceramide level,ceramide in HCT116 cells,increased
same,inhibition at 20 µM,SK1 enzyme,20%

# Reference: paper PMC8779255, “Determining the Anticancer Activity of Sphingosine Kinase Inhibitors Containing Heteroatoms in Their Tail Structure” (Pharmaceutics, 2022)
